From patent US7186727B2, “Pyridyl-substituted spiro-hydantoin compounds and use thereof” (Bristol-Myers Squibb Company, priority 2004, dated 2007)

Test: Microsomal liver assay (rate of oxidative metabolism)
Assay type: in vitro ADME
Conditions: human liver microsomes; 3 μM test compound, 1 mg/mL microsomal proteins, 37° C.
Method: Mouse and rat liver microsomes were purchased from XenoTech LLC (Kansas City, Kans.), and human liver microsomes were obtained from BD Gentest (Woburn, Mass.).
The oxidative metabolism in liver microsomes of various species was studied under the following condition: 3 μM test compound (organic solvent content <0.1%), 1 mg/mL microsomal proteins, 1 mM β-nicotinamide adenine dinucleotide phosphase (β-NADPH), 100 mM phosphate buffer (pH 7.4), and 6.7 MM magnesium chloride. The reaction (n=3) was initiated by the addition of NADPH followed by incubation at 37° C. for 20 min. Aliquots of samples (0.1 mL) were taken at 0, 5, and 20 min, and the reaction was quenched by the addition of three volumes of acetonitrile. Samples were stored at −20° C. until analysis.
The rate of oxidation in liver microsomes was determined from the following equation: rate (nmol/min/mg protein)=k*C0/Cprotein, where k (1/min) is the turnover rate constant estimated from non-linear regression of the percent compound remaining (y)-time (t) curve using the equation y=y0*exp(−k*t); C0 is initial drug concentration (μM), and Cprotein is microsomal protein concentration (mg/mL).
Rates of metabolism are “binned” (classified) as follows: […]

Compound `CN1C(=O)N(c2cc(Cl)cc(Cl)c2)C(=O)[C@]12CN(c1ccccn1)C[C@H]2c1ccc(C#N)cc1` (relative stereo) [4-[(5S*,9R *)-3-(3,5-dichlorophenyl)-1-methyl-2,4-dioxo-7-pyridin-2-yl-1,3,7-triazaspiro[4.4]non-9-yl]-benzonitrile] has a rate of metabolism of 0.2 nmol/min/mg.
